Structures can show the parent of a compound that is named as a salt.

Data set [1] concerns mouse water toxicity model for cerebral edema. Kind of data set: Mouse water toxicity model - brain volume by MRI. It counts as in vivo.
Description: Mouse Water Toxicity Model—Brain Volume by Magnetic Resonance Imaging (MRI): MRI is used to measure changes in brain volume in response to water shock, using the water toxicity model. As described for the survival and brain water content studies above, mice are injected, IP, with a water bolus alone or water bolus and test compound at 0.76 mg/kg, and changes in brain volume as detected by MRI are monitored. […] High resolution T2-weighted sagittal scans (resolution=0.1 mm×0.1 mm×0.7 mm) of the mouse head are obtained prior to water injection, 5.67 min post water injection, and then every 5.2 minutes until the animal expires from the water loading. Each scan contains twenty-five 0.7 mm contiguous imaging slices of which 14-15 slices contain a portion of the brain. The cross sectional area of the brain in each imaging slice is measured by manual region-of-interest selection using ImageJ. Brain volumes are then calculated for each scan by summing the individual cross sectional brain areas and multiplying by the slice thickness (0.7 mm).
The test system of data set [2] is mouse water toxicity model. As to the kind of experiment: Mouse water toxicity model - survival curves. The conditions noted are these: 0.76 mg/kg, versus placebo.
Description: Mouse Water Toxicity Model—Survival Curves: The in vivo efficacies of the compounds are tested using the mouse water toxicity model, where a mouse is injected with water at 20% of its body weight. […] The resulting euvolemic hyponatremia rapidly leads to CE, making this a practical model to test an inhibitor of the CNS aquaporin, AQP4b.
The ability of mice to survive H2O toxicity is determined in three experiments using 10-12 mice each (16-19 weak old male/female). Deionized water is prepared for injection with either 0.39 mg/kg phenylbenzamide (placebo) or 0.76 mg/kg with test compound.
Data set [3] deals with middle cerebral artery occlusion (MCAo) model. Kind of data set: MCAo stroke model - cerebral edema (hemispheric brain volume by MRI).
Description: To mimic this injury in mice, an intraluminal monofilament model of middle cerebral artery occlusion (MCAo) is used. Occlusion is achieved by inserting a surgical filament into the external carotid artery (ECA) and threading it forward into the internal carotid artery (ICA) until the tip blocks the origin of the MCA. […] This technique is used to study a temporary occlusion in which the MCA is blocked for one hour. The filament is then removed allowing reperfusion to occur for 24 hours before the animal's brain is imaged using T2-weighted scans in a 9.4T Bruker MRI scanner at the Case Center for Imaging Research (FIG. 7). […] Solid line highlights the region of infarct in the MCAo brain.
Cerebral Edema—Mice are given saline or treated with 2-{[3,5-bis(trifluoromethyl)phenyl]carbamoyl}-4-chlorophenyl phosphate disodium salt (Compound 5) by multi-dosing at 5 mg/kg i.p. every three hours (n=8 per treatment). […] Ipsilateral and contralateral hemispheric volume is measured from the T2-weighted MR images of mice 24 hours post-icus. Relative change in hemispheric volume is calculated as a percent of the difference between ipsilateral brain volume (Vi) and contralateral brain volume (Vc) relative to the contralateral brain volume (Percent Change in Hemispheric Brain Volume=((Vi−Vc)/Vc)×100%.
Data set [4] in a line: Solid state stability (hydrolysis to the phenol) at room temperature.
A short description of data set [5]: Stability and pH of aqueous solutions. The data set is classed as physicochemical. The conditions noted are these: for longer term stability of solutions: solutions at RT. The protocol:
Water is added and the mixture is stirred or sonicated. Yields 10 mg/ml to 20 mg/ml solutions stable for at least 24 hrs.

The test system of data set [6] is middle cerebral artery occlusion (MCAo) model. As to the kind of experiment: MCAo stroke model - neurological outcome. The conditions noted are these: mouse, in vivo.
Description: To mimic this injury in mice, an intraluminal monofilament model of middle cerebral artery occlusion (MCAo) is used. Occlusion is achieved by inserting a surgical filament into the external carotid artery (ECA) and threading it forward into the internal carotid artery (ICA) until the tip blocks the origin of the MCA. […] This technique is used to study a temporary occlusion in which the MCA is blocked for one hour. The filament is then removed allowing reperfusion to occur for 24 hours before the animal's brain is imaged using T2-weighted scans in a 9.4T Bruker MRI scanner at the Case Center for Imaging Research (FIG. 7).
Neurological Outcome—In the same experiment as above, animals are scored for neurological outcome on a simple 5 point scale described in Manley, G. T. et al., Aquaporin-4 Deletion in Mice Reduces Brain Edema After Acute Water Intoxication and Ischemic Stroke, Nature Medicine, 6, 159-163 (2000).
A short description of data set [7]: Bioconversion of prodrug salt in mouse plasma in vitro. The conditions noted are these: 20° C. The data set is classed as in vitro ADME.

For `O=C(Nc1cc(C(F)(F)F)cc(C(F)(F)F)c1)c1cc(Cl)ccc1O` [Compound 1], the “extent of CE during the period of observation” value in data set [1] (0.76 mg/kg) is “reduced”. For the same compound, in data set [1] (0.76 mg/kg IP, fit to single exponential model), the “rate of CE development” value was 0.032 min⁻¹. Further, in data set [1] (0.76 mg/kg, versus no drug), the “reduction of rate of CE development” value is given as 2.5 fold. Also, in data set [1] (n=14 mice), the “Cerebral Edema Rate by MRI” value came to 0.032 min⁻¹. Besides, the “improvement of time to 50% survival” value in data set [2] is on record as “roughly 52 min”. The “improvement of percent survival” value in data set [2] (n=34) is reported as 3.2 fold.

For `O=C(Nc1cc(C(F)(F)F)cc(C(F)(F)F)c1)c1cc(Cl)ccc1OP(=O)([O-])[O-].[Na+].[Na+]` [Compound 5], in data set [3] (24 hours after MCAo, 5 mg/kg i.p. every three hours, n=8, ±SEM), the “relative change in ipsilateral brain volume” value was 4.2±1.7%. In addition, in data set [3] (versus saline controls), the “reduction in brain swelling after MCAo” value was 3.2 fold. Besides, in data set [4], the “hydrolysis in the solid state” value is given as “about 10 % per day”. In data set [5], the “longer term stability of solutions” value is “about 1 % per day”. For the same compound, the “progression to severe paralysis or death” value in data set [6] is “did not progress into a state of severe paralysis or death”.

Turning to `O=C(Nc1cc(C(F)(F)F)cc(C(F)(F)F)c1)c1cc(Cl)ccc1OP(=O)(O)O` [Formula I], the “stability at RT” value in data set [4] (solid sample kept at RT) is on record as “stable at RT for a week or more”. Also, the pH of solution entry in data set [5] (5 mg/mL in 1% Na2HPO4) was “about 7”; in data set [5] (5 mg/mL in 2% Na2HPO4), 7.4.

As for `O=C(Nc1cc(C(F)(F)F)cc(C(F)(F)F)c1)c1cc(Cl)ccc1OP(=O)(O)O` [bis ethanolamine salt], the “hydrolysis in the solid state” value in data set [4] is given as “about 10 % per day”. Also, the “time sufficient to render prodrug salt undetectable” value in data set [7] is “Less than 5 minutes”. The “Final pH of solutions” value in data set [5] (in water) is “about 7.5”. Also, in data set [5], the “longer term stability of solutions” value is “about 1 % per day”.

Consider `O=C(Nc1cc(C(F)(F)F)cc(C(F)(F)F)c1)c1cc(Cl)ccc1OP(=O)(O)O` [mono ethanolamine salt], for which the hydrolysis result in data set [4] (after 5 days at RT) was “about 10%”.

Regarding `O=C(Nc1cc(C(F)(F)F)cc(C(F)(F)F)c1)c1cc(Cl)ccc1OP(=O)([O-])O.[Na+]` [mono sodium salt], in data set [4], the “hydrolysis in the solid state” value is reported as “about 10 % per day”. Besides, the “longer term stability of solutions” value in data set [5] is “about 1 % per day”.

Values taken from US12496308B2.
